Reference: US20100234395A1, “UREIDE DERIVATIVE AND PHARMACEUTICAL APPLICATION THEREOF” (TORAY INDUSTRIES, INC., priority 2006, published 2010)
Read-outs that look alike come from different tables or passages of the source.

Assays:
ddY mice = assay: Acetic acid writhing test in mice (analgesic effects); type: in vivo; details: Mus musculus
Description: ddY mice were grown for at least 16 hours under fasting conditions while free water intake was allowed, and a solution of the test compound or a solvent was orally administered thereto (0.1 ml/10 g). As a solvent for a solution of the test compound, dimethyl sulfoxide (DMSO):Tween 80:27% hydroxypropyl-P-cyclodextrin (hereafter abbreviated to “HP-β-CD”) (1:1:8) or 27% HP-β-CD was used. A solution of 0.6% acetic acid (0.1 ml/10 g) was administered intraperitoneally 45 minutes after administration to induce a writhing reaction (i.e., a movement of stretching or arching the body). The number of the writhing reactions that had occurred for the period from 10 minutes after administration of the acetic acid solution to 10 minutes thereafter was counted, and the number of times was designated as an indicator of pain. The number of times of reactions in the group to which a solvent had been administered was designated as 100%, and the concentration of the test compound that had inhibited 50% of such reaction was designated as the ED50 value.
The compound of Reference Example 78 is disclosed in the claims of JP Patent Publication (kohyo) No. 2006-517535 A, the compounds of Reference Examples 93 and 199 are disclosed in the claims of JP Patent No. 3003148, and the compound of Reference Example 103 is disclosed in the claims of JP Patent Publication (kohyo) No. 2006-514095 A. Thus, these compounds were compared with the compounds of the present invention having similar structures in terms of analgesic effects with oral administration (Table 4) or subcutaneous administration (Table 5). Dimethyl sulfoxide (DMSO):Tween 80:27% HP-β-CD (1:1:8) or 27% HP-β-CD was used as a solvent for the test compound.

COX-1 = target: T1, COX-1 (Homo sapiens, UniProt P23219); assay: Activity of inhibiting COX-1 in human blood (thromboxane B2 after ionomycin); type: cell-based; details: thromboxane B2 production
T1 construct: Human blood that had been sampled with the use of heparin (19 units/ml) was used; from tissue; host or cells: human whole blood (heparinised)
Description: Human blood that had been sampled with the use of heparin (19 units/ml) was used. Blood was fractionated to reaction tubes in amounts of 500 μl, the test compound or solvent was added thereto, and the resultants were incubated at 37° C. for 60 minutes. Dimethyl sulfoxide (DMSO) was used as a solvent for the test compound. Thereafter, ionomycin (30 nM) was added, and the reaction was allowed to proceed for 30 minutes. After the completion of the reaction, the supernatant (blood plasma) was recovered via centrifugation at 4° C., and the amount of thromboxane B2 in the plasma was quantified using a kit (519031, Cayman Chemical). The amount of thromboxane B2 produced via the addition of ionomycin was designated as 100%, and the concentration of the test compound that inhibits 50% of such reaction was represented by the IC50 value.

COX-2 = target: T2, COX-2 (Homo sapiens, UniProt P35354); assay: Activity of inhibiting COX-2 in human blood (prostaglandin E2 after lipopolysaccharide); type: cell-based; details: prostaglandin E2 production
T2 construct: Human blood that had been sampled with the use of heparin (19 units/ml) was used; from tissue; host or cells: human whole blood (heparinised), aspirin-pretreated, stimulated with lipopolysaccharide
T2 sequence (P35354 18-604): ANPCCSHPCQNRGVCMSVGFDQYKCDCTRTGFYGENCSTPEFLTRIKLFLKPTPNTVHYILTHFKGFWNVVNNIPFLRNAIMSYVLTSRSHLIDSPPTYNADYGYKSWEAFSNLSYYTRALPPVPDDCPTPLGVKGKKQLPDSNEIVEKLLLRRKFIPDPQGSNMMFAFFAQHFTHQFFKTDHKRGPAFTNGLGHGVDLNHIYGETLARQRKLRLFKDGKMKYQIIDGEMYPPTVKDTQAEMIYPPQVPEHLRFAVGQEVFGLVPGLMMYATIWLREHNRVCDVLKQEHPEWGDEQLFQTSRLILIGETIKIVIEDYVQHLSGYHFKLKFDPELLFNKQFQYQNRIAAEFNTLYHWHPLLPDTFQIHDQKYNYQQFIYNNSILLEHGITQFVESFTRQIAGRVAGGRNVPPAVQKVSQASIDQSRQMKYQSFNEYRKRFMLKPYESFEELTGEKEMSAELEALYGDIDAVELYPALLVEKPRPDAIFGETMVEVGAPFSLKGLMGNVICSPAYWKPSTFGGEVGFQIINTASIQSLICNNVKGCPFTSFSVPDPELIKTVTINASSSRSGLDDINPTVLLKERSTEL
Description: Human blood that had been sampled with the use of heparin (19 units/ml) was used. Blood was fractionated to reaction tubes in amounts of 500 μl, aspirin (12 μg/ml) was added thereto, and the resultants were incubated at 37° C. for 6 hours. Thereafter, the test compound or solvent, and lipopolysaccharide (10 μg/ml) were added, and the reaction was allowed to proceed for 18 hours. After the completion of the reaction, the supernatant (blood plasma) was recovered via centrifugation at 4° C., and the amount of prostaglandin E2 in the plasma was quantified using a kit (514010, Cayman Chemical). Dimethyl sulfoxide (DMSO) was used as a solvent for the test compound. The amount of prostaglandin E2 produced via the addition of lipopolysaccharide was designated as 100%, and the concentration of the test compound that inhibits 50% of such reaction was represented by the IC50 value.

[1] = oral administration 45 minutes before 0.6% acetic acid i.p., 50% inhibition of writhing reactions, read-out: ED50 (mg/kg)[90% confidence limit]
[2] = sc, Table 5, subcutaneous administration, read-out: ED50 (mg/kg) [90% confidence limit]

T1 sequence (P23219 24-599): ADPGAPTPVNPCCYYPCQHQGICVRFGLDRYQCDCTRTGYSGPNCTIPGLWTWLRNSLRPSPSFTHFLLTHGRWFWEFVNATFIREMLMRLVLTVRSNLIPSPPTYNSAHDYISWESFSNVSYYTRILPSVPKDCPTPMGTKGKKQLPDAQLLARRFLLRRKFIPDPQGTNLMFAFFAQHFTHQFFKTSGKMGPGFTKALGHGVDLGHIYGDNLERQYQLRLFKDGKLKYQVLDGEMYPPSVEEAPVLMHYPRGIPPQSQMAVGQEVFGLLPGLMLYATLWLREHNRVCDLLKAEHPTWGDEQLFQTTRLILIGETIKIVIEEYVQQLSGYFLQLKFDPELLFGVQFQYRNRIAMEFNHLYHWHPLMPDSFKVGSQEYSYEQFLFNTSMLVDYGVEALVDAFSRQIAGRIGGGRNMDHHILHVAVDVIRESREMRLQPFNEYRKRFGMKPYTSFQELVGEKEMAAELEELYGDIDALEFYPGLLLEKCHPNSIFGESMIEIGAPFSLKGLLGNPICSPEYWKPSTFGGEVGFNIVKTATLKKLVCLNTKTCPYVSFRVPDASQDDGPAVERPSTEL

Structure (SMILES)	IC50 (COX-1) [µM]	IC50 (COX-2) [µM]	ED50 (ddY mice; [1]) [mg/kg]	ED50 (ddY mice; [2]) [mg/kg]	ED50 (ddY mice; Table 4, oral administration, comparison with similar known compound, read-out: ED50 (mg/kg) [90% confidence limit]) [mg/kg]
COc1ccc(-c2nc(N3CCN(C(=O)N(C)O)CC3)sc2-c2ccc(OC)cc2)cc1 [Example 57, 4-(4,5-Bis(4-methoxyphenyl)thiazol-2-yl)-1-(N-hydroxy-N-methylcarbamoyl)piperazine]	–	–	9.79	–	–
COc1ccc(-c2nc(C3CCN(C(=O)N(O)C4CCCCC4)CC3)oc2-c2ccc(OC)cc2)cc1 [Example 16, 4-(4,5-Bis(4-methoxyphenyl)oxazol-2-yl)-1-(N-cyclohexyl-N-hydroxycarbamoyl)piperidine]	< 0.1	> 10	–	–	–
COc1ccc(-c2nc(C3CCNCC3)sc2-c2ccc(OC)cc2)cc1 [Reference Example 93, 4-(4,5-Bis(4-methoxyphenyl)thiazol-2-yl)piperidine, reference compound]	–	–	–	> 100	–
COc1ccc(-c2nc(C3(C)CCN(C(=O)N(C)O)CC3)sc2-c2ccc(OC)cc2)cc1 [Example 55, 4-(4,5-Bis(4-methoxyphenyl)thiazol-2-yl)-1-(N-hydroxy-N-methylcarbamoyl)-4-methylpiperidine]	< 0.1	> 10	–	–	–
COc1ccc(-c2nc(C3(C)CCN(C(=O)N(C)O)CC3)oc2-c2ccc(OC)cc2)cc1 [Example 42, 4-(4,5-Bis(4-methoxyphenyl)oxazol-2-yl)-1-(N-hydroxy-N-methylcarbamoyl)-4-methylpiperidine]	< 0.1	> 10	–	–	–
COc1ccc(-c2cc(C3CCNCC3)nn2-c2ccc(OC)cc2)cc1 [Reference Example 103, 4-(1,5-Bis(4-methoxyphenyl)-1H-pyrazol-3-yl)piperidine, reference compound]	–	–	–	> 100	–
COc1ccc(-c2cc(C3CC4CCC(C3)N4C(=O)N(C)O)nn2-c2ccc(OC)cc2)cc1 (stereo not shown) [Example 68, 3-(1,5-Bis(4-methoxyphenyl)-1H-pyrazol-3-yl)-8-(N-hydroxy-N-methylcarbamoyl)-8-azabicyclo[3.2.1]octane]	< 0.1	> 10	–	–	–
CN(O)C(=O)N1CCC(c2nc(-c3ccc(F)cc3)c(-c3ccccc3)o2)CC1 [Example 13, 4-(4-(4-Fluorophenyl)-5-phenyloxazol-2-yl)-1-(N-hydroxy-N-methylcarbamoyl)piperidine]	–	–	2.62	–	–
CNC(=O)N1CCC(c2nc(-c3ccc(OC)cc3)c(-c3ccc(OC)cc3)s2)CC1 [Reference Example1 199, reference compound]	–	–	–	34.4	–
COc1ccc(-c2nc(C3CCNCC3)oc2-c2ccc(OC)cc2)cc1 [Reference Example 78, 4-(4,5-Bis(4-methoxyphenyl)oxazol-2-yl)piperidine, reference compound]	–	–	–	–	> 100
COc1ccc(-n2nc(C3CCN(C(=O)N(C)O)CC3)cc2-c2cccnc2OC)cc1 [Example 67, 4-(1-(4-Methoxyphenyl)-5-(2-methoxypyridin-3-yl)-1H-pyrazol-3-yl)-1-(N-hydroxy-N-methylcarbamoyl)piperidine]	–	–	2.51	–	–
COc1ccc(-c2cc(C3CCN(C(=O)N(C)O)CC3)oc2-c2ccc(OC)cc2)cc1 [Example 38, 4-(4,5-bis(4-methoxyphenyl)furan-2-yl)-1-(N-hydroxy-N-methylcarbamoyl)piperidine]	< 0.1	> 10	–	–	–
COc1ccc(-c2nc(C3CCN(C(=O)N(C)OC)CC3)oc2-c2ccc(OC)cc2)cc1 [Example 24, 4-(4,5-Bis(4-methoxyphenyl)oxazol-2-yl)-1-(N-methoxy-N-methylcarbamoyl)piperidine]	< 0.1	> 10	–	–	–
CCN(O)C(=O)N1CCC(c2nc(-c3ccc(OC)cc3)c(-c3ccc(OC)cc3)o2)CC1 [Example 19, 4-(4,5-Bis(4-methoxyphenyl)oxazol-2-yl)-1-(N-hydroxy-N-ethylcarbamoyl)piperidine]	< 0.1	> 10	–	–	–
COc1ccc(-c2nc(C3CCN(C(=O)N(C)OC)CC3)sc2-c2ccc(OC)cc2)cc1 [Example 61, 4-(4,5-Bis(4-methoxyphenyl)thiazol-2-yl)-1-(N-methoxy-N-methylcarbamoyl)piperidine]	< 0.1	> 10	–	–	–

The next lines start with results.

IC50 (COX-1) [µM]	IC50 (COX-2) [µM]	Structure (SMILES)	ED50 (ddY mice; [1]) [mg/kg]	ED50 (ddY mice; [2]) [mg/kg]	ED50 (ddY mice; Table 4, oral administration, comparison with similar known compound, read-out: ED50 (mg/kg) [90% confidence limit]) [mg/kg]
< 0.1	> 10	COc1ccc(-c2nc(C3(C#N)CCN(C(=O)N(C)O)CC3)sc2-c2ccc(OC)cc2)cc1 [Example 56, 4-(4,5-Bis(4-methoxyphenyl)thiazol-2-yl)-4-cyano-1-(N-hydroxy-N-methylcarbamoyl)piperidine]	4.61	–	–
< 0.1	> 10	COc1ccc(-c2nc(C3(C#N)CCN(C(=O)N(C)O)CC3)oc2-c2ccc(OC)cc2)cc1 [Example 47, 4-(4,5-Bis(4-methoxyphenyl)oxazol-2-yl)-4-cyano-1-(N-hydroxy-N-methylcarbamoyl)piperidine]	3.3	–	–
< 0.1	> 10	COc1ccc(-c2nc(C3CCN(C(=O)N(O)C(C)C)CC3)oc2-c2ccc(OC)cc2)cc1 [Example 15, 4-(4,5-Bis(4-methoxyphenyl)oxazol-2-yl)-1-(N-isopropyl-N-hydroxycarbamoyl)piperidine]	–	–	–
< 0.1	> 10	COc1ccc(-c2nc(C3CCN(C(=O)N(C)O)CC3)oc2-c2ccc(OCCO)cc2)cc1 [Example 77]	–	–	–
< 0.1	> 10	COc1ccc(-c2cc(C3CCN(C(=O)N(C)O)CC3)sc2-c2ccc(OC)cc2)cc1 [Example 39, 4-(4,5-Bis(4-methoxyphenyl)thiophen-2-yl)-1-(N-hydroxy-N-methylcarbamoyl)piperidine]	–	–	–
< 0.1	> 10	COc1ccc(-c2nc(C3CCN(C(=O)N(O)C(C)C)CC3)sc2-c2ccc(OC)cc2)cc1 [Example 60, 4-(4,5-Bis(4-methoxyphenyl)thiazol-2-yl)-1-(N-hydroxy-N-isopropylcarbamoyl)piperidine]	–	–	–
< 0.1	> 10	CCCC1(c2nc(-c3ccc(OC)cc3)c(-c3ccc(OC)cc3)o2)CCN(C(=O)N(C)O)CC1 [Example 74, 4-(1,5-Bis(4-methoxyphenyl)oxazol-2-yl)-4-propyl-1-(N-hydroxy-N-methylcarbamoyl)piperidine]	–	–	–
< 0.1	> 10	COc1ccc(-c2cc(C3CCN(C(=O)N(C)O)CC3)[nH]c2-c2ccc(OC)cc2)cc1 [Example 34, 4-(4,5-Bis(4-methoxyphenyl)-1H-pyrrol-2-yl)-1-(N-hydroxy-N-methylcarbamoyl)piperidine]	–	–	–
< 0.1	> 10	COc1ccc(-c2nc(C3(c4ccccc4)CCN(C(=O)N(C)O)CC3)oc2-c2ccc(OC)cc2)cc1 [Example 48, 4-(4,5-Bis(4-methoxyphenyl)oxazol-2-yl)-(N-hydroxy-N-methylcarbamoyl)-4-phenylpiperidine]	–	–	–
